From patent publication US20230050202A1, “ENGINEERED FIBROBLASTS AS CELL THERAPY TO TREAT CANCER VIA TUMOR STROMA STABILIZATION” (The Johns Hopkins University, priority 2020, published 2023) come the findings set out here.

In series [1] the test system is αSMA expression in human lung fibroblasts (MRCS). Put plainly: TGFβ1-mediated CAF induction (αSMA expression) in human lung fibroblasts. As to conditions: control fibroblasts, TGFβ1 10 ng/mL, vs non-treated group, p<0.001. The class given is cell-based. The source says:
Prototype STAR fibroblasts were generated by introducing the dominant negative form of RhoA (RhoA^T19N) into to human lung fibroblasts (MRCS) to reduce RhoA signaling, a key mediator for CAF phenotypes.

Series [2] has as its system 67NR-embedded ECM. The experiment in a line: Line FRAP diffusion enhancement time in spheroid-embedded ECM. To be noted: 0.5 mM genipin-treated 67NR-embedded ECM, 2,000 kDa FITC-dextran. The class given is cell-based, mouse. The method, then: ECM crosslinking. ECM-encapsulated 67NR spheroids were prepared as previously described. After 1-hour incubation, genipin (Sigma-Aldrich, G4796) was mixed with DMEM to reach final concertation of 0.5 mM and 1 mM. The solutions were then added to the samples and incubated for 24 hours. The DMSO-added DMEM were used as a control for the experiment. The samples were then washed with PBS for further usage. Fluorescence recovery after photobleaching. 10 mg/mL of 2,000 kDa fluorescein isothiocyanate (FITC)-Dextran (SigmaAldrich, FD2000S) was added to the collagen gel and incubated for 30 minutes at 37° C. […] The characteristic fluorescence recovery times τD, when 64% of the fluorescence intensity is recovered, was calculated based on the fitted curve. […] Line fluorescence recovery was performed after photobleaching (FRAP) to measure the diffusivity of the spheroid-embedded ECM. […] To assess whether there is enhancement in diffusion rates in the radial direction from the spheroid, the metric “diffusion enhancement time (τDE)” was introduced, defined as the difference in the characteristic fluorescence recovery times τD, when 64% of the fluorescence intensity is recovered, between the two stripes: […]) where rD(radial) represents the rD measured in the radial direction, and rD(orthogonal) in the corresponding orthogonal direction. […]

Series [3] relates to 67NR spheroids. The experiment in a line: Cytotoxicity in genipin-treated 67NR-embedded ECM. The class given is cell-based, mouse. As to conditions: 0.5 mM genipin, 24 hours. As for the experimental part:
(§1) ECM crosslinking. ECM-encapsulated 67NR spheroids were prepared as previously described. After 1-hour incubation, genipin (Sigma-Aldrich, G4796) was mixed with DMEM to reach final concertation of 0.5 mM and 1 mM. The solutions were then added to the samples and incubated for 24 hours. The DMSO-added DMEM were used as a control for the experiment. The samples were then washed with PBS for further usage.
The corollary to the observation that ECM fibril alignment promotes CAF induction in the coculture is that suppressing such alignment will attenuate it. To confirm this, genipin, a biocompatible crosslinking reagent, was used to suppress the fibril reorganization. The optimal genipin concentration was identified to be 0.5 mM. […] Yet the fibril alignment was suppressed by 28% (FIGS. 5A-5B). […] Though ECM crosslinking might lead to CAF induction because of ECM stiffening, it was not the case in these experiments. […] Having had established the optimal genipin concentration to suppress fibril alignment, it was used to evaluate whether CAF induction in cocultured fibroblasts would be attenuated. […] To exclude the possibility that genipin directly downregulates CAF markers in fibroblasts, their expression was evaluated in genipin-treated samples containing fibroblasts only.

In series [4] the test system is FSP1 expression in NIH-3T3 fibroblasts. Put plainly: FSP1 immunofluorescence in fibroblasts, 67NR spheroid coculture. The class given is cell-based, mouse. The method, then:
(§2) Spheroid encapsulation with fibroblasts: for coculture, 40 μL collagen was used to re-suspend 2×10^5 NIH-3T3 cells after centrifugation. The fibroblasts-containing liquid collagen was then added to the glass bottom well where a spheroid was placed in its center. The mixture was allowed to gel at room temperature for 2 hours. 2 mL DMEM was then added into the well. The embedded spheroid was incubated for at least 1 day or longer, as indicated in the text, before being used.
as §1
(§3) Immunofluorescence. Samples were fixed in 4% paraformaldehyde for 30 minutes, permeabilized with 0.1% Triton X100 (Sigma-Aldrich, X100) in PBS for 30 minutes. PBS containing 2% bovine serum albumin (Sigma-Aldrich, A7906) and 0.1% Tween-20 (Promega) was then added to sample for 30 minutes for blocking. All antibody was diluted in PBS with 1% bovine serum albumin. The fixed cells were incubated with the primary antibody for overnight at 4° C., followed by washing using PBS for 3 times, and then incubated with the secondary antibody for 2 hours. After washing, the samples were immersed in PBS and stored in 4° C. for further usage. […]
(§4) Fibril coherence analysis was performed using Quantitative orientation measurement in orientationJ21. The immunostaining was quantified using Fiji/ImageJ software. […]
(§5) where II and AI denotes the fluorescence intensity, and the area of the cell, respectively. I2 and A2 denotes the fluorescence intensity, and the area of the larger region encompassing the cell and the surrounding background, respectively. […] The corrected fluorescence intensity was then recorded for each cell.

The test system of series [5] is 67NR-embedded ECM. The experiment in a line: ECM fibril alignment (coherence analysis) in 67NR spheroid-embedded ECM. The class given is cell-based, mouse. As to conditions: 0.5 mM genipin, 24 hours, vs control. As for the experimental part: Spheroid encapsulation without fibroblast: after the spheroid adhered to the glass bottom well via collagen, the liquid collagen kept at the 4° C. was poured to the well to embed the spheroid. 40 μL liquid collagen was slowly pipetted into the well and allowed to gel for 2 hours at room temperature. 2 mL DMEM was then added into the well. The embedded spheroid was incubated for at least 1 day or longer before being used.
as §1, §4
To determine whether 67NR spheroid alone is sufficient to align the fibrils, time-lapse imaging was performed by embedding EpH4-Ev and 67NR spheroids in ECM without fibroblasts. […] To quantify the degree of fibril alignment, coherence analysis 21 was performed. […] Fibril orientations within and outside the 300-μm perimeter from the spheroid were evaluated separately.

In series [6] the test system is αSMA expression in NIH-3T3 fibroblasts. The experiment in a line: αSMA immunofluorescence in fibroblasts, 67NR spheroid coculture. The class given is cell-based, mouse. The method, then:
as §2, §1, §3, §4, §5

The nature of series [7]: Rheological measurement (LAOS) of crosslinked collagen gel. The class given is physicochemical. As for the experimental part: ECM crosslinking. ECM-encapsulated 67NR spheroids were prepared as previously described. After 1-hour incubation, genipin (Sigma-Aldrich, G4796) was mixed with DMEM to reach final concertation of 0.5 mM and 1 mM. The solutions were then added to the samples and incubated for 24 hours. The DMSO-added DMEM were used as a control for the experiment. The samples were then washed with PBS for further usage. Elastic modulus measurement. The Large […] Oscillatory Shear (LAOS) was used to test the shear modulus of the crosslinked and uncrosslinked collagen gel. The collagen gel was prepared in disks and subjected to sinusoidal rotational deformation. The amplitude of the applied strain (y) to the material was increased at a fixed rotational frequency (w) of 1 rad/s. The analysis utilized a viscoelastic stress response model wherein the shear stress is computed as a function of strain ranging from 0.01%-15%. The Fourier Transform method was utilized to quantify the nonlinear stress response of ECM samples under increasingly large angular shear strain. LAOS was performed using an Anton Paar Modular Compact Rheometer (MCR 302) with a parallel plate (diameter 8 mm) at 37° C. The measurement values of the shear modulus were then used obtain the elastic modulus by the formula: E=2G(1+v) where E is elastic modulus, G is shear modulus, and v is the Poisson ratio. The Poisson ratio was assumed to be 0.5.

[8] abbreviates: fibroblast-only samples after genipin treatment.
Setting [9] is: genipin-treated cocultures, fibroblasts outside 300-μm perimeter, treatment vs control.
Setting [10] is: genipin-treated cocultures, fibroblasts within the 300-μm perimeter from the spheroid.

On to “TGFβ1: cytokine used at 10 ng/mL to induce CAF phenotype in fibroblasts”, for which, in series [1], the αSMA expression increase is on record as 50%.
Consider `COC(=O)C1=CO[C@@H](O)[C@@H]2C(CO)=CC[C@H]12` [genipin], for which the “rDE value (diffusion enhancement time)” value in series [2] is listed as “decreased to a negligible level”. Besides, the cytotoxicity entry in series [3] is recorded as “no observable cytotoxicity”. In series [4] (setting [8]), the FSP1 expression entry is on record as “remained unchanged”. The FSP1 expression decreased in series [4] (setting [9]) was found to be 36%. This compound also showed an FSP1 expression reduced in series [4] (setting [10]) of 23%. The fibril alignment suppressed in series [5] was 28%. The αSMA expression result in series [6] (setting [8]) was “remained unchanged”. The compound further registered a αSMA expression decreased in series [6] (setting [9]) of 39%. In addition, the αSMA expression reduced in series [6] (setting [10]) amounted to 33%. For the same compound, the ECM stiffening entry in series [7] (0.5 mM genipin, 24 hours) was “negligible ECM stiffening”. Besides, the “shear moduli vs uncrosslinked control” value in series [7] (0.5 mM genipin-treated ECM) is recorded as “comparable”. Besides, in series [7] (ECM treated with 0.5 mM genipin), the “elastic modulus of the ECM (mean±s.d.)” value worked out at 755±163 Pa. The compound also yielded an ECM became stiffer in series [7] (ECM treated with 1 mM genipin vs un-crosslinked ECM) of 29%.
